Literature values, collected in patent publication US20090092696A1, “Herbal combination omega oil aphrodisiac” (priority 2007, published 2009).

Assays:
corpus cavernosum = settings: for erection when injected directly into the corpus cavernosum: hypodermic needle injection; for duration of erection after injection: appropriate dose, intracavernosal
impotent men = settings: ingestion
impotentia erectionis = settings: buccal administration of 100 I.U. three times a day for 14 days

Compound | erection when injected directly into the corpus cavernosum (corpus cavernosum) | further results
CCN(CC)CCOC(=O)C(Cc1cccc2ccccc12)CC1CCCO1 (mixture of isomers) [naftidrofuryl] | caused erection | –
COC(=O)[C@@H]1[C@H]2C[C@H]3c4[nH]c5ccccc5c4CCN3C[C@@H]2CC[C@@H]1O [Yohimbine] | – | subjective improvement in erectile ability (impotent men; impotent men treated): 38%; treated patients reporting complete satisfaction (impotent men): 5%
CN(C)CCCN1c2ccccc2CCc2ccccc21 [imipramine] | caused erection | –
CC[C@H](C)[C@@H]1NC(=O)[C@H](Cc2ccc(O)cc2)NC(=O)[C@@H](N)CSSC[C@@H](C(=O)N2CCC[C@H]2C(=O)N[C@@H](CC(C)C)C(=O)NCC(N)=O)NC(=O)[C@H](CC(N)=O)NC(=O)[C@H](CCC(N)=O)NC1=O [oxytocin] | – | improvement of impotentia erectionis (impotentia erectionis): 12 of the 16
COc1ccc(Cc2nccc3cc(OC)c(OC)cc23)cc1OC [papaverine] | caused erection | duration of erection after injection (corpus cavernosum): unrelenting erection lasting for hours
CC(COc1ccccc1)N(CCCl)Cc1ccccc1 (stereo not drawn) [phenoxybenzamine] | caused erection | duration of erection after injection (corpus cavernosum): unrelenting erection lasting for hours
Cc1ccc(N(CC2=NCCN2)c2cccc(O)c2)cc1 [phentolamine] | caused erection | –
CC(=O)Oc1cc(C(C)C)c(OCCN(C)C)cc1C [thymoxamine] | caused erection | –
COc1ccc(CCN(C)CCCC(C#N)(c2ccc(OC)c(OC)c2)C(C)C)cc1OC (stereo not drawn) [verapamil] | caused erection | –
